# Measured values as given in publication PMC7679302 (Environmental Science and Pollution Research International, 2020).
# Marks after values point to notes of the source that are not given here.
# Assays:
# [1] = tested on: Lampsilis siliquoidea glochidia; assay: Acute 48 h aqueous toxicity test with glochidia (viability); assay type: in vivo; conditions: Lampsilis siliquoidea, in vivo, 48 h
# From the text: (§1) Aqueous acute toxicity tests were based on the American Society for Testing and Materials (ASTM [2013]) protocols for conducting toxicity tests with early life stages of freshwater mussels. Gravid female L. siliquoidea were collected from an established reference site in the Maitland River (ON) and kept in ECCC’s Aquatic Life Research Facility (Canada Centre for Inland Waters, Burlington, ON). Glochidia were removed from gravid females and their viability (i.e., ability to close their valves) was assessed. Glochidia from a minimum of three gravid mussels whose glochidia exceeded 90% viability were pooled and exposed to a geometric series of nominal concentrations (0, 0.0025, 0.025, 0.25, 2.5, 25 mg/L) of either FIN or MGA plus a solvent control. Tests were conducted in 250-mL glass beakers (unaerated and unfed) with culture water. After 24 and 48 h of exposure, glochidia viability was assessed in a minimum of 100 glochidia per replicate (four replicates). Water samples were collected at the beginning and end of the tests, and frozen pending chemical analysis.
# [2] = as above; assay type: in vivo, Lampsilis siliquoidea; conditions: Lampsilis siliquoidea, in vivo
# From the text: as §1
# Daphnia magna [3] = conditions: ref FDA-CDER [1996]; cited from earlier work
# mayflies Hexagenia spp. = assay: 21 d range-finding sediment test, mayflies; assay type: in vivo; conditions: n = 3
# Method: (§2) Range-finding tests of 21 d were completed with juvenile mussels, amphipods and mayflies to assist with the selection of the concentrations to be used in final testing. Nominal concentrations in range-finding tests were 0.1, 1, 10, 100, and 1000 mg/kg, based on dry weight of sediment. Range-finding test conditions were identical to those described in the manuscript for chronic sediment tests with the exception of test duration.
# At the end of the test, survival and wet weight of mayflies in each replicate were recorded.
# [4] = tested on: juvenile Lampsilis siliquoidea; assay: Chronic 28-day spiked sediment test with juvenile mussels (survival, burial ability); conditions: for Burial ability (percent of surviving mussels), mean (SEM) / Survival (percent of initial animals added), mean (SEM): n = 5
# From the text: Freshwater mussels (L. siliquoidea, 6–8 months old, ~ 1 cm in length) were purchased from Missouri State University (Springfield, MO, USA).
# [5] = tested on: juvenile mussels L. siliquoidea; assay: 21 d range-finding sediment test, juvenile mussels; assay type: in vivo; conditions: n = 3
# Method: as §2
# After 21 d, mussels were recovered and transferred to Petri dishes filled with clean sand and housed in large trays of aerated culture water to assess burial ability.
# mayfly Hexagenia spp. [6] = conditions: Hexagenia spp. (mixture of H. rigida and H. limbata), in vivo, 42 days, pH 8.3
# Method: (§3) Nominal concentrations were 10, 30, 100, 300, and 1000 mg/kg for juvenile freshwater mussels and 3, 10, 30, 100, and 300 mg/kg for amphipods and mayflies, and were based on the results of range-finding tests (detailed in Supplementary Materials). […] For each PPCP, the concentration of solvent used was consistent across treatments.
# (§4) The sediments were mixed for 24 h, left open in a fume hood for 3–5 days for the acetone to evaporate, and then stored at 4 °C until use. […] All beakers were aerated for 1 week under testing conditions prior to the addition of organisms, and throughout the tests. Duration of toxicity tests varied depending on the species and endpoint of interest (see below). Water quality parameters were collected for each test (Table S1).
# (§5) Briefly, eggs of Hexagenia spp. […] Prior to testing, eggs were hatched and nymphs were grown in aerated 20-L aquaria containing culture sediment (depth: 2.5 cm) and culture water (depth: 10 cm) for 6 to 7 weeks.
# (§6) Ten mayflies (5–8 mg wet weight) were added to each beaker (three replicates for each control and PPCP concentration). Two tests were conducted for each compound. […] At the end of the test, mayflies were removed and surviving animals from each of the three replicates were counted and weighed.
# amphipod Hyalella azteca = assay: Chronic 42-day sediment test with amphipods (survival, growth, reproduction, sex ratio); conditions: for Females (percent of surviving amphipods), mean (SEM) / Survival (percent of initial animals added), mean (SEM): n = 10
# Method: Dechlorinated municipal tap water was used for cultures and toxicity tests. Both cultures and toxicity tests were held at 25 °C with a photoperiod of 16 h light:8 h dark, and amphipods were fed finely ground Tetra-Min fish food flakes (Tetra GMBH, Melle, Germany). Juvenile amphipods were removed weekly from breeding containers and used in toxicity tests.
# Two tests were conducted for each compound. Amphipods were fed ground Tetra-Min twice per week during weeks 1 and 2, three times during week 3, and 5 mg three times per week during weeks 4 to 6. Surviving adults were counted, weighed as a group, and examined under a dissecting microscope to identify males (enlarged second gnathopods) and females, and the number of juveniles was recorded.
# mayfly Hexagenia spp. [7] = assay: Chronic 42-day sediment test with mayflies (survival, growth); conditions: measured, n = 6
# Method: as §3, §4, §5, §6
# amphipods H. azteca = assay: 21 d range-finding sediment test, amphipods; assay type: in vivo, Hyalella azteca; conditions: n = 3
# Method: as §2
# Amphipods were fed 2.5 mg Tetra-min twice per week during weeks one and two, and three times during week three. At the end of the test, amphipods were removed and the survivors were counted and weighed.
# [8] = tested on: rainbow trout (Oncorhynchus mykiss); conditions: ref FDA-CDER [1996]; cited from earlier work
# [9] = tested on: fathead minnow (Pimephales promelas); set-up: method as in Lalone et al. [2013]; conditions: 21-day exposure; ref Lalone et al. [2013]; cited from earlier work
# [10] = tested on: Japanese medaka (Oryzias latipes); set-up: method as in Lalone et al. [2013]; conditions: 21-day exposure; ref Lalone et al. [2013]; cited from earlier work
# Daphnia magna [11] = tested on: Daphnia magna; set-up: method as in Lalone et al. [2013]; conditions: 21-day exposure to as much as 500 μg/L; ref Lalone et al. [2013]; cited from earlier work
# [12] = finasteride 4 mg/kg dw sediment (0.03 mg/L water), measured
# [13] = finasteride 11 mg/kg dw sediment (0.1 mg/L water), measured
# [14] = finasteride 35 mg/kg dw sediment (0.5 mg/L water), measured
# [15] = finasteride 96 mg/kg dw sediment (2 mg/L water), measured
# [16] = finasteride 430 mg/kg dw sediment (20 mg/L water), measured
# [17] = survival, dry weight sediment, measured
# [18] = survival, overlying water, measured
# [19] = finasteride 1 mg/kg dw sediment (0.003 mg/L water), measured, 42-day
# [20] = finasteride 4 mg/kg dw sediment (0.03 mg/L water), measured, 42-day
# [21] = finasteride 11 mg/kg dw sediment (0.1 mg/L water), measured, 42-day
# [22] = finasteride 35 mg/kg dw sediment (0.5 mg/L water), measured, 42-day
# [23] = finasteride 96 mg/kg dw sediment (2 mg/L water), measured, 42-day
# [24] = survival, growth, 42-day, dry weight sediment, measured
smiles,measurement,setting,value
CC(C)(C)NC(=O)[C@H]1CC[C@H]2[C@@H]3CC[C@H]4NC(=O)C=C[C@]4(C)[C@H]3CC[C@]12C [Finasteride],ChV (geometric mean of NOEC and LOEC),[1],7.6 mg/L
same,LOEC,[1],23 mg/L^a
same,NOEC,[1],2.5 mg/L
same,"viability at 48 h, 0.003 mg/L",[2],90%
same,"viability at 48 h, 0.03 mg/L",[2],87%
same,"viability at 48 h, 0.3 mg/L",[2],87%
same,"viability at 48 h, 2.5 mg/L",[2],88%
same,"viability at 48 h, 23 mg/L",[2],85%
same,96-h LC50,Daphnia magna [3],21 µg/mL
same,"Growth, mean (SEM)",mayflies Hexagenia spp.; 0.1 mg/kg dry weight nominal,30 (0.5) mg wet weight
same,"Survival (%), mean (SEM)",mayflies Hexagenia spp.; 0.1 mg/kg dry weight nominal,100 (0.0) %
same,"Growth, mean (SEM)",mayflies Hexagenia spp.; 1 mg/kg dry weight nominal,30 (0.6) mg wet weight
same,"Survival (%), mean (SEM)",mayflies Hexagenia spp.; 1 mg/kg dry weight nominal,100 (0.0) %
same,"Growth, mean (SEM)",mayflies Hexagenia spp.; 10 mg/kg dry weight nominal,31 (0.3) mg wet weight
same,"Survival (%), mean (SEM)",mayflies Hexagenia spp.; 10 mg/kg dry weight nominal,100 (0.0) %
same,"Growth, mean (SEM)",mayflies Hexagenia spp.; 100 mg/kg dry weight nominal,29 (1.3) mg wet weight
same,"Survival (%), mean (SEM)",mayflies Hexagenia spp.; 100 mg/kg dry weight nominal,93 (3.3)^a %
same,"Growth, mean (SEM)",mayflies Hexagenia spp.; 1000 mg/kg dry weight nominal,"4.5^a,^d (0.0) mg wet weight"
same,"Survival (%), mean (SEM)",mayflies Hexagenia spp.; 1000 mg/kg dry weight nominal,3.3^a (3.3) %
same,"Burial ability (percent of surviving mussels), mean (SEM)",[4]; [12],90 (5.5) %
same,"Survival (percent of initial animals added), mean (SEM)",[4]; [12],94 (2.4) %
same,"Burial ability (percent of surviving mussels), mean (SEM)",[4]; [13],98 (2.0) %
same,"Survival (percent of initial animals added), mean (SEM)",[4]; [13],94 (4.0) %
same,"Burial ability (percent of surviving mussels), mean (SEM)",[4]; [14],88 (4.0) %
same,"Survival (percent of initial animals added), mean (SEM)",[4]; [14],98 (2.0) %
same,"Burial ability (percent of surviving mussels), mean (SEM)",[4]; [15],82 (5.5) %
same,"Survival (percent of initial animals added), mean (SEM)",[4]; [15],72 (8.6)^d %
same,"Burial ability (percent of surviving mussels), mean (SEM)",[4]; [16],0 (0)^d %
same,"Survival (percent of initial animals added), mean (SEM)",[4]; [16],10 (5.5)^d %
same,Overlying water concentration at which both survival and burial ability were reduced,[4]; measured,20 mg/L
same,Sediment concentration at which both survival and burial ability were reduced,[4]; measured,430 mg/kg
same,"ChV, sediment","[4]; survival, dry weight sediment",58 mg/kg
same,"LOEC, sediment",[4]; [17],96 mg/kg
same,"NOEC, sediment",[4]; [17],35 mg/kg
same,"ChV, overlying water","[4]; survival, overlying water",1 mg/L
same,"LOEC, overlying water",[4]; [18],2 mg/L
same,"NOEC, overlying water",[4]; [18],0.5 mg/L
same,"Burial (%), mean (SEM)",[5]; 0.1 mg/kg dry weight nominal,72 (6.3) %
same,"Survival (%), mean (SEM)",[5]; 0.1 mg/kg dry weight nominal,100 (0.0) %
same,"Burial (%), mean (SEM)",[5]; 1 mg/kg dry weight nominal,93 (3.3) %
same,"Survival (%), mean (SEM)",[5]; 1 mg/kg dry weight nominal,100 (0.0) %
same,"Burial (%), mean (SEM)",[5]; 10 mg/kg dry weight nominal,87 (6.7) %
same,"Survival (%), mean (SEM)",[5]; 10 mg/kg dry weight nominal,100 (0.0) %
same,"Burial (%), mean (SEM)",[5]; 100 mg/kg dry weight nominal,90 (0.0) %
same,"Survival (%), mean (SEM)",[5]; 100 mg/kg dry weight nominal,100 (0.0) %
same,"Burial (%), mean (SEM)",[5]; 1000 mg/kg dry weight nominal,77 (5.1) %
same,"Survival (%), mean (SEM)",[5]; 1000 mg/kg dry weight nominal,53 (6.7)^a %
same,"ChV, overlying water",mayfly Hexagenia spp. [6],1 mg/L
same,"LOEC, overlying water",mayfly Hexagenia spp. [6],2 mg/L
same,"LOEC, sediment",mayfly Hexagenia spp. [6],96 mg/kg
same,"NOEC, overlying water",mayfly Hexagenia spp. [6],0.5 mg/L
same,"NOEC, sediment",mayfly Hexagenia spp. [6],35 mg/kg
same,"Survival, % of pooled controls","amphipod Hyalella azteca; 96 mg/kg (2 mg/L) FIN, 42-day",65%
same,"NOEC, overlying water","amphipod Hyalella azteca; Hyalella azteca, in vivo, 42 days, pH 8.3",0.5 mg/L
same,"Females (percent of surviving amphipods), mean (SEM)",amphipod Hyalella azteca; [19],57 (4.2) %
same,"Survival (percent of initial animals added), mean (SEM)",amphipod Hyalella azteca; [19],96 (1.4) %
same,"Females (percent of surviving amphipods), mean (SEM)",amphipod Hyalella azteca; [20],53 (3.0) %
same,"Survival (percent of initial animals added), mean (SEM)",amphipod Hyalella azteca; [20],93 (1.7) %
same,"Females (percent of surviving amphipods), mean (SEM)",amphipod Hyalella azteca; [21],50 (4.4) %
same,"Survival (percent of initial animals added), mean (SEM)",amphipod Hyalella azteca; [21],94 (1.7) %
same,"Females (percent of surviving amphipods), mean (SEM)",amphipod Hyalella azteca; [22],52 (2.7) %
same,"Survival (percent of initial animals added), mean (SEM)",amphipod Hyalella azteca; [22],92 (2.0) %
same,"Females (percent of surviving amphipods), mean (SEM)",amphipod Hyalella azteca; [23],69 (4.4)^d %
same,"Survival (percent of initial animals added), mean (SEM)",amphipod Hyalella azteca; [23],63 (8.3)^d %
same,"ChV, sediment","amphipod Hyalella azteca; survival, growth, 42-day, dry weight sediment",58 mg/kg
same,"LOEC, sediment",amphipod Hyalella azteca; [24],96 mg/kg
same,"NOEC, sediment",amphipod Hyalella azteca; [24],35 mg/kg
same,"ChV, overlying water","amphipod Hyalella azteca; survival, growth, 42-day, overlying water",1 mg/L
same,"LOEC, overlying water","amphipod Hyalella azteca; survival, growth, 42-day, overlying water, measured",2 mg/L
same,"Survival (percent of initial animals added), mean (SEM)",mayfly Hexagenia spp. [7]; finasteride 1 mg/kg dw sediment (0.003 mg/L water),98 (1.7) %
same,"Survival (percent of initial animals added), mean (SEM)",mayfly Hexagenia spp. [7]; finasteride 4 mg/kg dw sediment (0.03 mg/L water),97 (2.1) %
same,"Survival (percent of initial animals added), mean (SEM)",mayfly Hexagenia spp. [7]; finasteride 11 mg/kg dw sediment (0.1 mg/L water),100 (0.0) %
same,"Survival (percent of initial animals added), mean (SEM)",mayfly Hexagenia spp. [7]; finasteride 35 mg/kg dw sediment (0.5 mg/L water),"90 (2.6)^d,i %"
same,"Survival (percent of initial animals added), mean (SEM)",mayfly Hexagenia spp. [7]; finasteride 96 mg/kg dw sediment (2 mg/L water),97 (2.1) %
same,"Growth, mean (SEM)",amphipods H. azteca; 0.1 mg/kg dry weight nominal,1.1 (0.12) mg wet weight
same,"Survival (%), mean (SEM)",amphipods H. azteca; 0.1 mg/kg dry weight nominal,100 (0.0) %
same,"Growth, mean (SEM)",amphipods H. azteca; 1 mg/kg dry weight nominal,1.1 (0.04) mg wet weight
same,"Survival (%), mean (SEM)",amphipods H. azteca; 1 mg/kg dry weight nominal,100 (0.0) %
same,"Growth, mean (SEM)",amphipods H. azteca; 10 mg/kg dry weight nominal,1.2 (0.05) mg wet weight
same,"Survival (%), mean (SEM)",amphipods H. azteca; 10 mg/kg dry weight nominal,100 (0.0) %
same,"Growth, mean (SEM)",amphipods H. azteca; 100 mg/kg dry weight nominal,0.79 (0.06) mg wet weight
same,"Survival (%), mean (SEM)",amphipods H. azteca; 100 mg/kg dry weight nominal,100 (0.0) %
same,"Survival (%), mean (SEM)",amphipods H. azteca; 1000 mg/kg dry weight nominal,0^a (0.0) %
same,96-h LC50,[8],20 µg/mL
CC(=O)S[C@@H]1CC2=CC(=O)CC[C@]2(C)[C@H]2CC[C@@]3(C)[C@@H](CC[C@@]34CCC(=O)O4)[C@H]12 [spironolactone],Concentration that reduced fecundity,[9],50 ng/mL
same,Concentration that reduced fecundity,[10],50 ng/mL
same,Effect on reproduction,Daphnia magna [11],no effect
